In ChEMBL document CHEMBL1122680, “A photoaffinity reagent to label the opiate receptors of guinea pig ileum and mouse vas deferens” (J Med Chem, 1984):

What was measured:
Format in all cases: functional
[1] = species: Rattus norvegicus; experiment: Inhibitory effect on the binding of 2 nM [3H]naloxone to rat brain membrane
[2] = species: Mus musculus; experiment: Inhibitory effect on electrically induced contraction of Mouse vas deferens (MVD)
[3] = Relative potency calculated from the ratio of IC50 of [Leu]-enkephalin to that of the compound
[4] = species: Cavia porcellus; experiment: Inhibitory effect on electrically induced contraction of guinea pig ileum (GPI)

| SMILES | IC50 [1] [nM] | IC50 [2] [nM] | Potency [3] | IC50 [4] [nM] |
| --- | --- | --- | --- | --- |
| CC(C)C[C@H](NC(=O)[C@H](Cc1ccccc1)NC(=O)CNC(=O)CNC(=O)[C@@H](N)Cc1ccc(O)cc1)C(N)=O [[LEU5]ENKEPHALIN] | 118 | 17 | 1 | 120 |
| CC(C)C[C@H](NC(=O)[C@H](Cc1ccccc1)NC(=O)CNC(=O)[C@@H](C)NC(=O)[C@@H](N)Cc1ccc(O)cc1)C(N)=O | 30 | 2.88 | 3.9 | 5.23 |
| CC(C)C[C@H](NC(=O)[C@H](Cc1ccccc1)NC(=O)CNC(=O)[C@H](C)NC(=O)[C@@H](N)Cc1ccc(O)cc1)C(=O)NCCNc1ccc(N=[N+]=[N-])cc1[N+](=O)[O-] | 2.52 | 2.59 | 46.8 | 4.35 |
| C=CCN1CC[C@]23c4c5ccc(O)c4O[C@H]2C(=O)CC[C@@]3(O)[C@H]1C5 [NALOXONE] | 6.39 |  | 18.5 |  |
